{
  "source": "patent US20250152613A1",
  "about": "“COMPOSITIONS AND METHODS FOR COVID-19 TREATMENT” (101 THERAPEUTICS LTD., priority 2022, published 2025)",
  "key": {"[1]": {"test_system": "moderate COVID-19 patients", "assay": "Phase II/Phase III study of Compound 1 Vs Dexamethasone for moderate COVID-19 with Standard of Care", "type": "in vivo, human", "conditions": "expected", "description": "A prospective, randomized, multicenter, parallel group, double-blind, adaptive Phase II/Phase III study to evaluate safety and efficacy of Compound 1 Vs Dexamethasone for moderate COVID-19 disease along with Standard of Care is performed. The total duration of treatment administration for all patients is 3 days. The endpoints of the study are to evaluate efficacy of Compound 1 versus dexamethasone in moderate COVID-19 patients.\nCompound 1 is contained in vials, each vial containing 20 mg of Compound 1 to be reconstituted in saline (0.9% NaCl) for bolus intravenous (IV) injection of 5 ml of solution.\nThe study is designed to determine rate of treatment-emergent adverse events (AE) and serious adverse events (SAE) including changes in clinical condition, vital signs and laboratory parameters.\nOther endpoints of the study include: lowering mortality 28 or 60 days from administration; lowering rate of Intensive care units (ICU) admission; lowering mechanical ventilation or vasopressor therapy (28 days follow-up); improved clinical recovery rate [Time Frame: Day 10]-Proportion of patients who recovered within 10 days for which recovery is defined when the patient improves by 2 points in 11-point ordinal scale; an improvement in temperature, heart rate and oxygen saturation on days 1, 2, 4 and 7; decrease in viral load relative to admission levels according to RT-PCR from nasopharyngeal swab on days 3, 5 and 10; changes in levels of CRP, ferritin and CBC with differential; change in cytokine profile and lymphocyte sub-populations; and measurement of ACTH and morning cortisol levels.\nApproximately 318 eligible patients are randomized in a 1:1 ratio to one of 2 treatment groups. Group 1: Compound 1, 20 mg per day+Standard of care. Group 2: Dexamethasone 6 mg+Standard of care.\nTotal expected study duration is approximately 60 days consisting of: a screening period: 7 days (Day-7 to Day 1) prior to randomization. Treatment period: Day 1 to Day 3. End of treatment assessment: Day 3 (for patients receiving Compound 1) and Day X (for Dexamethasone arm, based on investigator' discretion). […]"}, "[2]": {"test_system": "bleomycin-induced PF mice model", "assay": "bleomycin-induced pulmonary fibrosis (PF) mice model", "type": "in vivo, C57BL/6 mice", "excerpt": "Post COVID-19 pulmonary fibrosis (PF) is defined as the presence of persistent and different fibrotic tomographic changes, often combined with impairment in pulmonary function tests. The pathogenesis of post-COVID-19 PF is partially known and likely multifactorial. Excessive production of reactive oxygen species and non-protective mechanical ventilation are potential triggers for post-COVID-19 PF. To explore the beneficial effect of compound 1 in pulmonary fibrosis, a bleomycin-induced PF mice model was utilized. Bleomycin is known for its ability to induce lung injury resulting in an acute inflammatory response, and the inflammatory phase is followed by fibrotic changes. In this model, direct administration of bleomycin to the lungs decreases survival of treated mice, due to vast pulmonary damage. The study was performed in 5 treatment groups of C57BL/6 mice (n=10-12 per group) and included early or late treatment with compound 1 (1 mg/mouse), early treatment with dexamethasone (DEX) in an amount of 0.45 mg/mouse, vehicle, and naïve control groups. Early treatment was initiated on day 1, on the same day as bleomycin administration. Late treatment was initiated on day 14. The test items were injected in the vehicle, dexamethasone and Compound 1 early treatment groups, on days 1, 2, 3, 7, 14, 21 and 28. In the late treatment group, Compound 1 was administered on days 14, 15, 16, 21, 28 and 31. The test items were injected intravenously through the tail vein after pulmonary fibrosis model induction (bleomycin was induced by intratracheal administration of bleomycin (3.5 U/kg)). Animals were monitored for morbidity, mortality, body weight, and clinical signs. Selected clinical signs (i.e., physical appearance, activity, ability to respond to external stimulus, eyes, and respiration quality) were scored to provide a clinical score. Cytokine levels in BALF (Day 33) and serum (Days 17 & 32) were determined."}, "COVID-19 patients": {"test_system": "COVID-19 patients", "conditions": "diabetics; RECOVERY trial (Rayman et al. 2021); cited from earlier work"}, "[3]": {"conditions": "according to the literature; cited from earlier work"}, "[4]": {"conditions": "10-30 mg i.v., single and 3 day repeated"}, "[5]": {"conditions": "out of 23 possibly or probably related AEs"}, "[6]": {"conditions": "Compound 1 20 mg per day i.v. for 3 days + Standard of care vs Dexamethasone 6 mg"}, "[7]": {"conditions": "early treatment from day 1, i.v., compound 1 1 mg/mouse, DEX 0.45 mg/mouse, day 33, mean±standard deviation"}, "[8]": {"conditions": "late treatment from day 14, i.v., 1 mg/mouse, day 33, mean±standard deviation"}, "[9]": {"conditions": "late treatment with Compound 1, day 33"}},
  "data": [
    {"compound": "C[C@@H]1C[C@H]2[C@@H]3CCC4=C/C(=N/OCCCO[C@H]5O[C@H](CO)[C@@H](O)[C@H](O)[C@@H]5O)C=C[C@]4(C)[C@@]3(F)[C@@H](O)C[C@]2(C)[C@@]1(O)C(=O)CO", "note": "[Compound 1, 1-((8S,9R,10S,11S,13S,14S,16R,17R,E)-9-fluoro-11,17-dihydroxy-10,13,16-trimethyl-3-((3-(((2S,3S,4S,5S,6R)-3,4,5-trihydroxy-6-(hydroxymethyl)tetrahydro-2H-pyran-2-yl)oxy)propoxy)imino)-6,7,8,9,10,11,12,13,14,15,16,17-dodecahydro-3H-cyclopenta[a]phenanthren-17-yl)-2-hydroxyethan-1-one]", "values": [
      {"measurement": "correlation between dose escalation and AEs frequency or severity", "setting": "healthy volunteers; 10, 20, 30 mg i.v.", "result": "no correlation"},
      {"measurement": "AE reported after exposure to Investigational Product", "setting": "healthy volunteers; [4]", "result": 29},
      {"measurement": "AEs possibly related to the IP", "setting": "healthy volunteers; [4]", "result": 13},
      {"measurement": "AEs probably related to the IP", "setting": "healthy volunteers; [4]", "result": 10},
      {"measurement": "Dose-Limiting Toxicities (DLTs)", "setting": "healthy volunteers; [4]", "result": "No DLTs"},
      {"measurement": "Serious Adverse Events (SAEs) or severe AEs", "setting": "healthy volunteers; [4]", "result": "No Serious Adverse Events (SAEs) or severe AEs"},
      {"measurement": "cases of hyperglycemia", "setting": "healthy volunteers; [4]", "result": "single case"},
      {"measurement": "possibly or probably related AEs, total", "setting": "healthy volunteers; [4]", "result": 23},
      {"measurement": "post exposure AEs assessed as not related", "setting": "healthy volunteers; [4]", "result": 6},
      {"measurement": "total Adverse Events (AE) reported during the study", "setting": "healthy volunteers; 15 healthy participants, 10, 20, 30 mg single i.v. doses and 30 mg once a day for 3 days, includes 4 before exposure", "result": 33},
      {"measurement": "blood glucose changes after administration", "setting": "healthy volunteers; 4 hours post any of the 24 administrations", "result": "no changes"},
      {"measurement": "severity of adverse events", "setting": "healthy volunteers; all events", "result": "mild to moderate"},
      {"measurement": "severity of the hyperglycemia event", "setting": "healthy volunteers; one individual", "result": "mild and transient"},
      {"measurement": "Blood Glucose after increase", "setting": "healthy volunteers; one individual, increased from 97", "result": 105, "unit": "mg/dL"},
      {"measurement": "anxiety, number", "setting": "healthy volunteers; [5]", "result": 1},
      {"measurement": "anxiety, percent", "setting": "healthy volunteers; [5]", "result": 4.34, "unit": "%"},
      {"measurement": "chemistry AEs, number", "setting": "healthy volunteers; [5]", "result": 8},
      {"measurement": "chemistry AEs, percent", "setting": "healthy volunteers; [5]", "result": 34.8, "unit": "%"},
      {"measurement": "fatigue reports, number", "setting": "healthy volunteers; [5]", "result": 2},
      {"measurement": "fatigue reports, percent", "setting": "healthy volunteers; [5]", "result": 8.7, "unit": "%"},
      {"measurement": "hematology AEs, number", "setting": "healthy volunteers; [5]", "result": 6},
      {"measurement": "hematology AEs, percent", "setting": "healthy volunteers; [5]", "result": 26.1, "unit": "%"},
      {"measurement": "hypertension, number", "setting": "healthy volunteers; [5]", "result": 1},
      {"measurement": "hypertension, percent", "setting": "healthy volunteers; [5]", "result": 4.34, "unit": "%"},
      {"measurement": "insomnia, number", "setting": "healthy volunteers; [5]", "result": 2},
      {"measurement": "insomnia, percent", "setting": "healthy volunteers; [5]", "result": 8.7, "unit": "%"},
      {"measurement": "noncardiac chest pain, number", "setting": "healthy volunteers; [5]", "result": 1},
      {"measurement": "noncardiac chest pain, percent", "setting": "healthy volunteers; [5]", "result": 4.34, "unit": "%"},
      {"measurement": "skin rash, number", "setting": "healthy volunteers; [5]", "result": 2},
      {"measurement": "skin rash, percent", "setting": "healthy volunteers; [5]", "result": 8.7, "unit": "%"},
      {"measurement": "hyperglycemia relative to the dexamethasone group", "setting": "[1]; [6]", "result": "lower"},
      {"measurement": "recovery from moderate COVID-19 relative to the dexamethasone group", "setting": "[1]; [6]", "result": "enhanced"},
      {"measurement": "mortality", "setting": "[1]; Compound 1 20 mg per day i.v. for 3 days + Standard of care", "result": "lower mortality"},
      {"measurement": "% Fibrosis - Digital morphometry", "setting": "[2]; [7]", "result": "8.25 ± 1.26", "unit": "%"},
      {"measurement": "Fibrosis score (MT)", "setting": "[2]; [7]", "result": "2.25 ± 0.5"},
      {"measurement": "Pathological score (H&E)", "setting": "[2]; [7]", "result": "2.5 ± 0.58"},
      {"measurement": "% Fibrosis - Digital morphometry", "setting": "[2]; [8]", "result": "5.2 ± 1.1", "unit": "%"},
      {"measurement": "Fibrosis score (MT)", "setting": "[2]; [8]", "result": "2 ± 0.7"},
      {"measurement": "Pathological score (H&E)", "setting": "[2]; [8]", "result": "2 ± 0.7"},
      {"measurement": "mortality rate (FIG. 1)", "setting": "[2]; late treatment from day 14, compared with DEX and Compound 1 early groups, similar to naïve", "result": "lower mortality rate"},
      {"measurement": "overall effect on mortality and disease progression vs early treatment with DEX or Compound 1", "setting": "[2]; late treatment with Compound 1", "result": "more profound effect"},
      {"measurement": "lung fibrosis by histopathological evaluation vs. vehicle control", "setting": "[2]; [9]", "result": "reduction in lung fibrosis"},
      {"measurement": "pathological and fibrosis scores and percentage of lung fibrosis compared to DEX treatment", "setting": "[2]; [9]", "result": "slightly lower"}
    ]},
    {"compound": "C[C@@H]1C[C@H]2[C@@H]3CCC4=CC(=O)C=C[C@]4(C)[C@@]3(F)[C@@H](O)C[C@]2(C)[C@@]1(O)C(=O)CO", "note": "[DEX, dexamethasone, reference compound]", "values": [
      {"measurement": "blood glucose levels", "setting": "COVID-19 patients", "result": "significantly elevated"},
      {"measurement": "% Fibrosis - Digital morphometry", "setting": "[2]; mouse, in vivo, iv", "result": "6 ± 1.41", "unit": "%"},
      {"measurement": "Fibrosis score (MT)", "setting": "[2]; mouse, in vivo, iv", "result": "2.25 ± 0.5"},
      {"measurement": "Pathological score (H&E)", "setting": "[2]; mouse, in vivo, iv", "result": "2.25 ± 0.5"},
      {"measurement": "most frequently reported adverse effect", "setting": "[3]", "result": "insomnia"}
    ]}
  ]
}
